Reference: US6423689B1, “Peptidyl calcium channel blockers” (Warner-Lambert Company, priority 1997, dated 2002)
*1 amine or outer side, *2 acyl side, *3 side chain or, on linkers, in order; H or OH if unused. Where a SMILES comes first, the peptide text is derived from it. The star is where a group is joined. Piperidide = C1CCN(*)CC1; CO = O=C([*:1])[*:2]; Bn = c1ccc(C*)cc1; OtBu = CC(C)(C)O*

Target: T1, N-type Ca2+ channels in IMR-32 cells (Homo sapiens, UniProt Q00975)
T1 construct: host or cells: IMR-32 cells, differentiated with dibutyryl cAMP and bromodeoxyuridine
T1 sequence (Q00975 whole entry): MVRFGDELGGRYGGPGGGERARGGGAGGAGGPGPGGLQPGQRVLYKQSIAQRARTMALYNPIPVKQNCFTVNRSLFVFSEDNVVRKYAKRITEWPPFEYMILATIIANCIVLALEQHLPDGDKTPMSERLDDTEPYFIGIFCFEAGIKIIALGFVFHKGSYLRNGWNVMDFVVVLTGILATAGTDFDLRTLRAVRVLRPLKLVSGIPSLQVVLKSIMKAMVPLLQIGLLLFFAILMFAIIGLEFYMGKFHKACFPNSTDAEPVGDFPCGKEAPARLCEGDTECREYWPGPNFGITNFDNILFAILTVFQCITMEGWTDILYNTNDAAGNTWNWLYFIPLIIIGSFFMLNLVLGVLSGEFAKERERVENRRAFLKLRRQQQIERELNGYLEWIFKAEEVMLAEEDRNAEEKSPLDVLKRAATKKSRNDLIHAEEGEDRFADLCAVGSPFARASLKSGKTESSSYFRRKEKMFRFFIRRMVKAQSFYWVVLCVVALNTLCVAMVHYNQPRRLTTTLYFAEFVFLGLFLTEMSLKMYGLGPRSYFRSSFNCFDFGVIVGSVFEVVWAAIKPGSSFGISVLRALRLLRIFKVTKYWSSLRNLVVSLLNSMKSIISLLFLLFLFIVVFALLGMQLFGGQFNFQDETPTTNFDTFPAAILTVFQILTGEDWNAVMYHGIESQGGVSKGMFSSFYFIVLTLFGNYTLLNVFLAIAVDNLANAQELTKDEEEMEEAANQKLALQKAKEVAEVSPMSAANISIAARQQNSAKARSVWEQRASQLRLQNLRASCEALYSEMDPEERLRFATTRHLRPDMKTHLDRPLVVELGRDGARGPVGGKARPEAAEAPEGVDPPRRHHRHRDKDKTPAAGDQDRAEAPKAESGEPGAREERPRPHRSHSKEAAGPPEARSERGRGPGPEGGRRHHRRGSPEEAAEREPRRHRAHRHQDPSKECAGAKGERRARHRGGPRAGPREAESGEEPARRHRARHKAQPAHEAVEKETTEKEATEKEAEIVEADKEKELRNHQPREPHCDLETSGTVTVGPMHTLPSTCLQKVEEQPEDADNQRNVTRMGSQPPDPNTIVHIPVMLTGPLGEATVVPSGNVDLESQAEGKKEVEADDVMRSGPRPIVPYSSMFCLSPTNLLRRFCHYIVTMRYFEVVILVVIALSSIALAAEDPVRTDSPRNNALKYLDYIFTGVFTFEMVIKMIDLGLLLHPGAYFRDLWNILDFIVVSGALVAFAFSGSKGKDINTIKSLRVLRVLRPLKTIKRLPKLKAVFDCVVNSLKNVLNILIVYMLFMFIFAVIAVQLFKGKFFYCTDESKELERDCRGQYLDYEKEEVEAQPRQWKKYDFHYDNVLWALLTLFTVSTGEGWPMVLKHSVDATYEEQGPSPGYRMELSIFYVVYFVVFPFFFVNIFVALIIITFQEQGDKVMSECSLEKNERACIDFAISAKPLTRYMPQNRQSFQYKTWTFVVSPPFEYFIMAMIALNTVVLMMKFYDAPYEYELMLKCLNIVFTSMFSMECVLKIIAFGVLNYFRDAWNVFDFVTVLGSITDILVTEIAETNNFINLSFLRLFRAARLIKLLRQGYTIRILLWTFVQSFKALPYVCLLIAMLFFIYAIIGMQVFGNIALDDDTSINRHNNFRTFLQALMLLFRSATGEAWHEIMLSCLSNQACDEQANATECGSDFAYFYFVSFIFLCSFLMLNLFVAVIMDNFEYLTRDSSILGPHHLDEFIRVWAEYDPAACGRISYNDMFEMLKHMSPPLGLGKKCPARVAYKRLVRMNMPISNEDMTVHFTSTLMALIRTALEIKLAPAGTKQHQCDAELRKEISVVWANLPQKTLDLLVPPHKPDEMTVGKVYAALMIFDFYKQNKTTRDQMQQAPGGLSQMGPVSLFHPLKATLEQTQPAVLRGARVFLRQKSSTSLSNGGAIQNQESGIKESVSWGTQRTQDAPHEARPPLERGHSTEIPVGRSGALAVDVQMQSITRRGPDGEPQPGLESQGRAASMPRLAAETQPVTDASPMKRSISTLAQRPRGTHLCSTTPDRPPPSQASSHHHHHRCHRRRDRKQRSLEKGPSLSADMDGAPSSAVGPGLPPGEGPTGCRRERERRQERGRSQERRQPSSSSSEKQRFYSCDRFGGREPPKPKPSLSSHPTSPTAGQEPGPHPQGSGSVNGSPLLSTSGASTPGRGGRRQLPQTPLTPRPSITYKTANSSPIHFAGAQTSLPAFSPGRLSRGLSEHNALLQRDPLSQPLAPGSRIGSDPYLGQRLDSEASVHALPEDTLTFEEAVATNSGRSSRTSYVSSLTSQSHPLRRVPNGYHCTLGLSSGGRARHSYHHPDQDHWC
T1 sequence (P54289 25-956 partner limits assumed): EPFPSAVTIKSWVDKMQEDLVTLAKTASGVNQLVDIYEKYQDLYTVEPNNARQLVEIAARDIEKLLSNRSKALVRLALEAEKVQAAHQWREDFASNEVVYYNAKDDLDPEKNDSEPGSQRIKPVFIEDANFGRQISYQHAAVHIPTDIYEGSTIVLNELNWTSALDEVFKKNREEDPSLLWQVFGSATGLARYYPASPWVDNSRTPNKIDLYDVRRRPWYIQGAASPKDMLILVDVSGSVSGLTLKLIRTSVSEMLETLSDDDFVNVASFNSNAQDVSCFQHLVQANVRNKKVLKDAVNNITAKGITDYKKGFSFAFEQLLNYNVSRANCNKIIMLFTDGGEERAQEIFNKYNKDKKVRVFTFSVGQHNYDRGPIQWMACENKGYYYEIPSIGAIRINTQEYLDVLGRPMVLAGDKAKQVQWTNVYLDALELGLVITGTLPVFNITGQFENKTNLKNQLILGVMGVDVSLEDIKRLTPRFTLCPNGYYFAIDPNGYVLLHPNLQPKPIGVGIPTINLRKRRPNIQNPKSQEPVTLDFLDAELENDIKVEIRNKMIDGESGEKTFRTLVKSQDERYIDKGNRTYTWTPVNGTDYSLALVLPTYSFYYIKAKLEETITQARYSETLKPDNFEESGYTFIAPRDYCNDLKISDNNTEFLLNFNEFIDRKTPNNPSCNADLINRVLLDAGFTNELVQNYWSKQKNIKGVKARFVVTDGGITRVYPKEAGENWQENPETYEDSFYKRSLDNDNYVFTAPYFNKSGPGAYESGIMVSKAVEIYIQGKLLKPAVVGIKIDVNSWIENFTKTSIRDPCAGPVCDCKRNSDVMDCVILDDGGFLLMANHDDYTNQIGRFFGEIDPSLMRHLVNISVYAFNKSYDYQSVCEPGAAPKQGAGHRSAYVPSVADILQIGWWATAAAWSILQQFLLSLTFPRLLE
T1 sequence (P54289 957-1103 partner limits assumed): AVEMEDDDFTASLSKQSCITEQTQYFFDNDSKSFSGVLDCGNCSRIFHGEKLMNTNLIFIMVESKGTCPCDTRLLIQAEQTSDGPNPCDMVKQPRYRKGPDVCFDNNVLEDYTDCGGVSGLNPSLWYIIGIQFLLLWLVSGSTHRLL
T1 sequence (P54284 whole entry partner): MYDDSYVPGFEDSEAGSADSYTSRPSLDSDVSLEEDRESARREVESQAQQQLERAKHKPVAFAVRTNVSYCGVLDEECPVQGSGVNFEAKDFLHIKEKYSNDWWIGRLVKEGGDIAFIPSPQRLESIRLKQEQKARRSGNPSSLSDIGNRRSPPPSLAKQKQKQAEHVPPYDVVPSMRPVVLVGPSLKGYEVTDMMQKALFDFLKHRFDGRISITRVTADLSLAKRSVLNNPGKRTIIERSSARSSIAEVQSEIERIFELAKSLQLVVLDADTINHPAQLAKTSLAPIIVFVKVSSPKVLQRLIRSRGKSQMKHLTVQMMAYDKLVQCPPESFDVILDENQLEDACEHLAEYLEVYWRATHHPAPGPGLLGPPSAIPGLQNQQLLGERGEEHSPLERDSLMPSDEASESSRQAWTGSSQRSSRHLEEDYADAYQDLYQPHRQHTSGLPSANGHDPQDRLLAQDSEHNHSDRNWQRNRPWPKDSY
Experiment: Inhibition of N-type calcium flux in IMR-32 cells (Indo-1 fluorescence, nitrendipine present)
Assay type: cell-based
Settings: for IC50: IMR-32 cells, 5 μM nitrendipine, K+ depolarization; for inhibition at 1 µM / inhibition at 10 µM: IMR-32
Description: Measurement of N-type Ca^2+ Channel Blocking Potencies of Compounds in IMR-32 Cells Using the Fluorescent Ca^2+ Indicator Indo-1
IMR-32 cells are a human tumoral cell line of neural origin. […] Calcium flux into these cells may be induced by stimulation with elevated potassium concentrations. The L-channel component of calcium flux may be blocked by adding 5 μM nitrendipine. The remaining component of calcium entry into the IMR-32 cells is due to calcium flux through N-type calcium channels. Intracellular calcium concentrations are measured using the fluorescent calcium indicator Indo 1. The effect of drug concentration on calcium uptake is studied.
The IMR-32 cell line was obtained from the American Type Culture Collection (Rockville, Md.). Cells were grown in Eagle's Minimum Essential Medium with Eagle's salts supplemented with 10% fetal bovine serum, 2 mM L-Gln and antibiotic/antimycotic mixture (Gibco). […] After 7 to 13 days of differentiation, cells were detached using 0.5 mM EDTA and loaded with 5 μM Indo-1 acetoxymethyl ester (Molecular Probes, Eugene, OR) at […] for 45 minutes. Loaded cells were washed twice, resuspended (˜10^7 cells/mL) in assay buffer (10 mM HEPES/Tris pH 7.4 in Hank's Balanced Salt Solution without bicarbonate or phenol red containing 0.5% bovine serum albumin) and kept on ice until use. Fluorescence measurements were carried out in a Photon Technology International (PTI, South Brunswick, N.J.) Model RF-F3004 spectrofluorometer with dual emission monochromators using excitation at 350 nm and emission at 400 and 490 nm. The instrument was equipped with a thermostated cuvette holder with stirring capabilities as well as with a computer-controlled pump which allowed for reagent addition during measurement. Instrument control and data collection was done by PTI's OSCAR software running on an IBM compatible computer. […] Samples were incubated for 10 minutes at 30° C. and then aliquoted into three 10×10 mm disposable acrylic cuvettes. Emission signals at 400 and 490 nm were acquired from each cuvette at 30° C. for 50 seconds. At 20 seconds after the start of reading, cells were depolarized by the addition of 160 μL of stimulation solution (1M KCl, 68 mM CaCl2) to the cuvette via the computer-controlled pump. Ratio of dual emission signals (400 nm/490 nm), which is proportional to intracellular Ca^2+ concentration, was plotted against time, and the difference between maximal response after stimulation and basal value (before stimulation) was determined. Values obtained in this way were plotted as a function of drug concentration. IC50 values of test compounds were calculated by fitting a four-parameter logistic function to the data using the least squares method.

| SMILES | Inhibition of Calcium Flux in IMR-32 Cells % Inhibition at 1 μM [%] | IC50 [µM] | Inhibition of Calcium Flux in IMR-32 Cells % Inhibition at 10 μM [%] | further results |
| --- | --- | --- | --- | --- |
| CNC(=O)N[C@@H](CC(C)C)C(=O)N[C@@H](Cc1ccc(OCc2ccccc2)cc1)C(=O)OC(C)(C)C (relative stereo) [Example 88, [S-(R*,R*)]-3-(4-Benzyloxy-phenyl)-2-[4-methyl-2-(3-methyl-ureido)-pentanoylamino]-propionic acid tert-butyl ester] | 30 | – | – | – |
| CC(C)C[C@H](NC(=O)N1CCCCCC1)C(=O)N[C@@H](Cc1ccc(OCc2ccccc2)cc1)C(=O)NC(C)(C)CO [Example 266, Azepane-1-carboxylic acid {(S)-1-[(S)-2-(4-benzyloxy-phenyl)-1-(2-hydroxy-1,1-dimethyl-ethylcarbamoyl)-ethylcarbamoyl]-3-methyl-butyl}-amide] | – | 1.8 | – | – |
| CC(C)C[C@H](NC(=O)N1CCCCC1)C(=O)N[C@@H](Cc1ccc(OCc2ccccc2)cc1)C(=O)OC(C)(C)C [Example 33, [S-(R*,R*)]-3-(4-Benzyloxy-phenyl)-2-{4-methyl-2-[(piperidine-1-carbonyl)-amino]-pentanoylamino}-propionic acid tert-butyl ester] ({Piperidide-CO}-Leu-Tyr(Bn)-OtBu) | – | 2.2 | – | inhibition at 1 µM: 48%; inhibition at 10 µM: 79% |
| CC(C)C[C@H](NC(=O)Nc1cc(Cl)cc(Cl)c1)C(=O)N[C@@H](Cc1ccc(OCc2ccccc2)cc1)C(=O)OC(C)(C)C (relative stereo) [Example 86, [S-(R*,R*)]-3-(4-Benzyloxy-phenyl)-2-{2-[3-(3,5-dichloro-phenyl)-ureido]-4-methyl-pentanoylamino}-propionic acid tert-butyl ester] | 40 | – | – | – |
| CC(C)C[C@H](NC(=O)N1CCCCCC1)C(=O)N[C@@H](Cc1ccc(OCc2ccccc2)cc1)C(=O)NC1CC(C)(C)NC(C)(C)C1 [Example 203, [S-(R*,R*)]-Azepane-1-carboxylic acid {1-[2-(4-benzyloxy-phenyl)-1-(2,2,6,6-tetramethyl-piperidin-4-ylcarbamoyl)-ethylcarbamoyl]-3-methyl-butyl}-amide] | – | 4.7 | – | inhibition at 1 µM: 15%; inhibition at 10 µM: 70% |
| CCN(CC)C(=O)C1CCCN(C(=O)C(Cc2ccc(OCc3ccccc3)cc2)NC(=O)C(CC(C)C)NC(=O)N2CCCCCC2)C1 (stereo not drawn) [Example 189, Azepane-1-carboxylic acid {1-[1-(4-benzyloxy-benzyl)-2-(3-diethylcarbamoyl-piperidin-1-yl)-2-oxo-ethylcarbamoyl]-3-methyl-butyl}-amide] | – | 0.94 | – | – |
| CC(C)C[C@H](NC(=O)N1CCCCCC1)C(=O)N[C@@H](Cc1ccc(OCc2ccccc2)cc1)C(=O)NCCC#N (relative stereo) [Example 236, [S-(R*,R*)]-Azepane-1-carboxylic acid {1-[2-(4-benzyloxy-phenyl)-1-(2-cyano-ethylcarbamoyl)-ethylcarbamoyl]-3-methyl-butyl}-amide] | 50 | – | 93 | – |
| CC(C)C[C@H](NC(=O)c1cccnc1)C(=O)N[C@@H](Cc1ccc(OCc2ccccc2)cc1)C(=O)OC(C)(C)C (relative stereo) [Example 124, [S-(R*,R*)]-3-(4-Benzyloxy-phenyl)-2-{4-methyl-2-[(pyridine-3-carbonyl)-amino]pentanoylamino}-propionic acid tert-butyl ester] | – | – | 60 | – |
| CC(C)C[C@H](NC(=O)c1ccco1)C(=O)C[C@H](Cc1ccc(OCc2ccccc2)cc1)C(=O)OC(C)(C)C (relative stereo) [Example 90, [S-(R*,R*)]-2-(4-Benzyloxy-benzyl)-5-[(furan-2-carbonyl)-amino]-7-methyl-4-oxo-octanoic acid tert-butyl ester] | 37 | – | 83 | – |
| CC(C)C[C@H](NC(=O)Nc1ccccc1)C(=O)N[C@@H](Cc1ccc(OCc2ccccc2)cc1)C(=O)OC(C)(C)C (relative stereo) [Example 54, [S-(R*,R*)]-3-(4-Benzyloxy-phenyl)-2-[4-methyl-2-(3-phenyl-ureido)-pentanoylamino]propionic acid tert-butyl ester] | 44 | – | 63 | – |
| CC(C)C[C@H](NC(=O)Nc1ccc(Br)cc1)C(=O)N[C@@H](Cc1ccc(OCc2ccccc2)cc1)C(=O)OC(C)(C)C (relative stereo) [Example 84, [S-(R*,R*)]-3-(4-Benzyloxy-phenyl)-2-{2-[3-(^4-bromo-phenyl)-ureido]-4-methyl-pentanoylamino}-propionic acid tert-butyl ester] | 49 | – | – | – |
| CC(C)C[C@H](NC(=O)N1CCCCCC1)C(=O)N[C@@H](Cc1ccc(OCc2ccccc2)cc1)C(=O)NCCCO [Example 255, [S-(R*,R*)]-Azepane-1-carboxylic acid {1-[2-(4-benzyloxy-phenyl)-1-(3-hydroxy-propylcarbamoyl)-ethylcarbamoyl]-3-methyl-butyl}-amide] | – | 4.3 | – | – |
| COc1ccc(NC(=O)[C@H](Cc2ccc(OCc3ccccc3)cc2)NC(=O)[C@H](CC(C)C)NC(=O)N2CCCCCC2)cc1 [Example 210, [S-(R*,R*)]-Azepane-1-carboxylic acid {1-[2-(4-benzyloxy-phenyl)-1-(4-methoxy-phenylcarbamoyl)-ethylcarbamoyl]-3-methyl-butyl}-amide] | – | 1.5 | – | inhibition at 1 µM: 39% |
| CC(C)C[C@H](NC(=O)N1CCCCCC1)C(=O)N[C@@H](Cc1ccc(OCc2c(Cl)cccc2Cl)cc1)C(=O)NC(C)(C)C (relative stereo) [Example 52, [S-(R*,R*)]-Azepane-1-carboxylic acid (1-{1-tert-butylcarbamoyl-2-[4-(2,6-dichloro-benzyloxy)-phenyl]-ethylcarbamoyl}-3-methyl-butyl)-amide] | 56 | – | 76 | – |
| CC(C)C[C@H](NC(=O)N1CCCCCC1)C(=O)N[C@@H](Cc1ccc(OCc2ccccc2)cc1)C(=O)Nc1ccc(N2CCCCC2)cc1 (relative stereo) [Example 260, [S-(R*,R*)]-Azepane-1-carboxylic acid {1-[2-(4-benzyloxy-phenyl)-1-(4-piperidin-1-yl-phenylcarbamoyl)-ethylcarbamoyl]-3-methyl-butyl}-amide] | – | – | 33 | – |
| CC(C)C[C@H](NC(=O)N1CCCCCC1)C(=O)N[C@@H](Cc1ccc(OCc2ccccc2)cc1)C(=O)Nc1cccc(O)c1 [Example 269, [S-(R*,R*)]-Azepane-1-carboxylic acid {1-[2-(4-benzyloxy-phenyl)-1-(3-hydroxy-phenylcarbamoyl)-ethylcarbamoyl]-3-methyl-butyl}-amide] | – | 2.8 | – | – |
| CC(C)C[C@H](NC(=O)N1CCCCCC1)C(=O)N[C@@H](Cc1ccc(OCc2ccccc2)cc1)C(=O)NCC1CCNCC1 [Example 262, [S-(R*,R*)]-Azepane-1-carboxylic acid (1-{-2-(4-benzyloxy-phenyl)-1-[(piperidin-4-ylmethyl)-carbamoyl]-ethylcarbamoyl]-3-methyl-butyl}-amide] | – | 51 | – | inhibition at 10 µM: 17% |
